Patent US11208412B2 (DAEGU-GYEONGBUK MEDICAL INNOVATION FOUNDATION, priority 2017, dated 2021)

Columns and labels:
Experiment in all cases: Kinase selectivity, DiscoverX scanMAX Kinase assay panel (% control)
Assay type in all cases: binding
[1] = target: T1, kinases of the scanMAX Kinase assay panel (Homo sapiens, UniProt Q15835); details: GRK1; 1 uM
T1 construct: purchased DiscoverX Co. (contract measurement) scanMAX Kinase assay panel
T1 sequence (Q15835 1-563): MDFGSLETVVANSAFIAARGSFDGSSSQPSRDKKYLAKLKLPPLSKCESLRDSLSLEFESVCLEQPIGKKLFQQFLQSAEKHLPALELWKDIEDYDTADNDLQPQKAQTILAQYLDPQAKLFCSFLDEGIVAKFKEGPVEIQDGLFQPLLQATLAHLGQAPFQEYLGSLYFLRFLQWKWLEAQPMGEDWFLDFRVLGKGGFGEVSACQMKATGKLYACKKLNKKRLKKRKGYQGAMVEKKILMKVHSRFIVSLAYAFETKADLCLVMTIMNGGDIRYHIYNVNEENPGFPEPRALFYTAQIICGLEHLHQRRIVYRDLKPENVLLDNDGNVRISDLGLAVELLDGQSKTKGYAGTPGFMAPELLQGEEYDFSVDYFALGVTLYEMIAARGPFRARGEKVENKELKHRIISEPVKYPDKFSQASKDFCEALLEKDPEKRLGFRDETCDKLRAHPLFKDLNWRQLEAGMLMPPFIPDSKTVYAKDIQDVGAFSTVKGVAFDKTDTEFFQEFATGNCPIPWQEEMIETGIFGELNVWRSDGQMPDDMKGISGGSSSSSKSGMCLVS
Summary of the method: (§1)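 Percent of control computed as (compound − positive control)/(negative control − positive control) × 100, DMSO defining 100% and positive control 0%. Each panel kinase exposed to 1 uM compound; values under 35% taken to mean the compound acts on that kinase.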

[2] = target: T2, kinases of the scanMAX Kinase assay panel (Homo sapiens, UniProt P15735); details: PHKG2; 1 uM
T2 construct: purchased DiscoverX Co. (contract measurement) scanMAX Kinase assay panel
T2 sequence (P15735 1-406): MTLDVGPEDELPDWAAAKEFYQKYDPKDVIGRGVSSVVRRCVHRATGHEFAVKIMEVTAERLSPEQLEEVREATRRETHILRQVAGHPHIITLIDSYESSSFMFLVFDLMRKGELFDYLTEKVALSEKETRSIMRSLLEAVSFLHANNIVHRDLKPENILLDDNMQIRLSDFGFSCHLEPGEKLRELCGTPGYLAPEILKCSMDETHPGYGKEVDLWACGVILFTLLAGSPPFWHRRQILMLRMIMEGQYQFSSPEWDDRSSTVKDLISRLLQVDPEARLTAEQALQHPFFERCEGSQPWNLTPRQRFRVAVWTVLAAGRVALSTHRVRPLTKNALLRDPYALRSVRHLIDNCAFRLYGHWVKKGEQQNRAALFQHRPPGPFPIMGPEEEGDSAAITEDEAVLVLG
Summary of the method: as §1

[3] = target: T3, kinases of the scanMAX Kinase assay panel (Homo sapiens, UniProt P30530); details: AXL; 1 uM
T3 construct: purchased DiscoverX Co. (contract measurement) scanMAX Kinase assay panel
T3 sequence (P30530 26-894): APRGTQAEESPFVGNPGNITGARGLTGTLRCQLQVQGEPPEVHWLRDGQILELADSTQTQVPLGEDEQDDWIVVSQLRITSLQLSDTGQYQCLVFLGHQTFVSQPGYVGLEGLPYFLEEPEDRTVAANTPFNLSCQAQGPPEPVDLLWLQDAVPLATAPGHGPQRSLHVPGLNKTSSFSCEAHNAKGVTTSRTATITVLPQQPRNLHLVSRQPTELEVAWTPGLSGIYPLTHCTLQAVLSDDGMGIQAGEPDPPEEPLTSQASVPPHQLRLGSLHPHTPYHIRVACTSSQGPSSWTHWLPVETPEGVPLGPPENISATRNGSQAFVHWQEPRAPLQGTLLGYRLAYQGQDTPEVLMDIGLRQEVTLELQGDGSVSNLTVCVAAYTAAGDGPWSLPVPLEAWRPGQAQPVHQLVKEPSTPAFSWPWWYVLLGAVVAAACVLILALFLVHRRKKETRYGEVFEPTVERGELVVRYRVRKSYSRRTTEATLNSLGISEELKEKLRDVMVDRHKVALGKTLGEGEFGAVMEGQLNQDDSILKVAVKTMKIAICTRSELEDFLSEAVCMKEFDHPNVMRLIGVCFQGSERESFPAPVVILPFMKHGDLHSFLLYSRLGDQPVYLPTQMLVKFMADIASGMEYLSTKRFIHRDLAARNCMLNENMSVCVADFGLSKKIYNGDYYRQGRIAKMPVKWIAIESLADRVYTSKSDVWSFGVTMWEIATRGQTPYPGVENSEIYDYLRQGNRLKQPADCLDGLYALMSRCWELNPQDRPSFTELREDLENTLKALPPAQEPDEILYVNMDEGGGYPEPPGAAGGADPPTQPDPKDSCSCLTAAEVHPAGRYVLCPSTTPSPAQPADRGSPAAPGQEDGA
Summary of the method: as §1

[4] = target: T4, kinases of the scanMAX Kinase assay panel (Homo sapiens, UniProt P68400); details: CSNK2A1; 1 uM
T4 construct: purchased DiscoverX Co. (contract measurement) scanMAX Kinase assay panel
Summary of the method: as §1

[5] = target: T5, kinases of the scanMAX Kinase assay panel (Homo sapiens, UniProt P41743); details: PRKCI; 1 uM
T5 construct: purchased DiscoverX Co. (contract measurement) scanMAX Kinase assay panel
T5 sequence (P41743 1-596): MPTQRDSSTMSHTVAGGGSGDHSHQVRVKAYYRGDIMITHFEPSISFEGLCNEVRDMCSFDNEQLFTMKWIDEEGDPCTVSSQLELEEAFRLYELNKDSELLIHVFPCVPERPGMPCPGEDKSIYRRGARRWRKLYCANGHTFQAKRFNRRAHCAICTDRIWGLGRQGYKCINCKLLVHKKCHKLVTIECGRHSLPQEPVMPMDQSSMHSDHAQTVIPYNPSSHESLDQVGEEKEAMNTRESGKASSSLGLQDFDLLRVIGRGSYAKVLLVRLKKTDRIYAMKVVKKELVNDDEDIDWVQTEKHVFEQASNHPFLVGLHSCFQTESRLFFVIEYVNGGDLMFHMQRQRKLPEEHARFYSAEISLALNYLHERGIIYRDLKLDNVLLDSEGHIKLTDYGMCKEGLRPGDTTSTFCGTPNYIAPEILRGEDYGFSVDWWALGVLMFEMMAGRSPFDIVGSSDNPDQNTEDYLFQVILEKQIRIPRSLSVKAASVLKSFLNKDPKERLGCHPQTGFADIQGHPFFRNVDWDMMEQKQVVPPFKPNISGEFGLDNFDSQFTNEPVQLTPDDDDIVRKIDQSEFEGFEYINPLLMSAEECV
Summary of the method: as §1

T4 sequence (P68400 whole entry): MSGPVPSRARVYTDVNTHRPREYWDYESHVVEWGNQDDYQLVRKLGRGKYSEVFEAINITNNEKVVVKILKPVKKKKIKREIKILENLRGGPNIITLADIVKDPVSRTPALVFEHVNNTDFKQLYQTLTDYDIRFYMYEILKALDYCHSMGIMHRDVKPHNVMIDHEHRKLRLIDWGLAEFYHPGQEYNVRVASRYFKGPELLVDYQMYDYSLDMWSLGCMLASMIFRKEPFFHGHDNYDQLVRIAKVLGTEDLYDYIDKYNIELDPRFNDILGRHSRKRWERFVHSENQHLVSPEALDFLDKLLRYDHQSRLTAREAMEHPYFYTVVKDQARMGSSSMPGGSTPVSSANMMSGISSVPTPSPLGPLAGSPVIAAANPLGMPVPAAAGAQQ

Compound	remaining binding at 1 µM [1] [%]	remaining binding at 1 µM [2] [%]	remaining binding at 1 µM [3] [%]	remaining binding at 1 µM [4] [%]	remaining binding at 1 µM [5] [%]
CCNc1nc(Nc2ccc(C(=O)N3CCC(N4CCOCC4)CC3)cc2OC)nc2[nH]cc(C(F)(F)F)c12 [Example 104, (4-((4-(ethylamino)-5-(trifluoromethyl)-7H-pyrrolo[2,3-d]pyrimidine-2-yl)amino)-3-methoxyphenyl)(4-morpholinopiperidine-1-yl)methanone]	67	9.3	69	73	53
CNc1nc(Nc2ccc(C(=O)N3CCOCC3)cc2OC)nc2[nH]cc(C#N)c12 [Example 1, 2-((2-methoxy-4-(morpholine-4-carbonyl)phenyl)amino)-4-(methylamino)-7H-pyrrolo[2,3-d]pyrimidine-5-carbonitrile]	72	14	90	59	96
CC1(Nc2nc(Nc3cnn([C@H]4CCN(C5COC5)C[C@@H]4F)c3Cl)nc3[nH]cc(C#N)c23)CC1 [Example 52, 2-((5-chloro-1-((3S,4S)-3-fluoro-1-(oxetane-3-yl)piperidine-4-yl)-1H-pyrazole-4-yl)amino)((1-methylcyclopropyl)amino)-7H-pyrrolo[2,3-d]pyrimidine-5-carbonitrile]	36	5.2	0	24	89
